The text below walks through data of PubChem BioAssay AID449740 (Southern Research Specialized Biocontainment Screening …, 2010).

The nature of assay [1]: polymyxin IC50 shift, round 3, mechanism study, late-stage follow-up (AID 449740). As to conditions: Salmonella Typhi WT vs phoP-, polymyxin IC50 shift, OD600 24 h, at 150 µM, stronger effect = higher value.
In assay [2] the test system is Salmonella Typhi WT vs phoP-, polymyxin IC50 shift, OD600 24 h. The description is as above.
The mark [3] stands for this setting: measured here: phoP- strain shift.
Where [4] appears, read: measured here: wild-type strain shift.

Active and inactive are the calls of the source. How the calls were made is not given here.

For orientation: IC50 means the concentration needed to halve the response being measured. Take `CCn1cc(C(=O)O)c(=O)c2cc(F)c(N3CCN(C(=S)Nc4ccccc4C)CC3)cc21`: the polymyxin IC50 shift in assay [1] (setting [3]) was -2.44; in assay [1] (setting [4]), 4.87. In addition, in assay [2], the half-inhibitory concentration (IC50) was 19 µM.

For the molecule `O=C(Nc1ccc(I)cc1)N1CCCN(Cc2ccccc2F)C1`, in assay [1], the polymyxin IC50 shift difference WT minus phoP- was -9.38 (inactive). Further, the polymyxin IC50 shift is 5.34 in assay [1] (setting [3]) and -4.04 in assay [1] (setting [4]).

Regarding `S=C(NCCc1ccc(Cl)cc1)Nc1ccncc1`, in assay [1], the polymyxin IC50 shift difference WT minus phoP- is -1.02 (inactive). The polymyxin IC50 shift came out at 6.57 in assay [1] (setting [3]) and 5.55 in assay [1] (setting [4]).

On to `CCn1cc(C(=O)O)c(=O)c2cc(F)c(N3CCN(C(=S)Nc4ccccc4OC)CC3)cc21`, for which the polymyxin IC50 shift was -0.353 in assay [1] (setting [3]) and 4.08 in assay [1] (setting [4]). The IC50 in assay [2] was 19 µM.

Consider `O=C(Nc1ccc(Cl)cc1)N1CCCN(Cc2ccccc2Br)C1`, for which the polymyxin IC50 shift difference WT minus phoP- in assay [1] was -0.534 (inactive). For the same molecule, the polymyxin IC50 shift in assay [1] (setting [3]) was found to be 6.73; in assay [1] (setting [4]), 6.2.

Consider `O=C(Nc1ccc(Cl)cc1)N1CCCN(Cc2ccc(Br)cc2)C1`, for which the polymyxin IC50 shift difference WT minus phoP- in assay [1] was -3.85 (inactive). In addition, the polymyxin IC50 shift was 0.497 in assay [1] (setting [3]) and -3.36 in assay [1] (setting [4]).
